Assay results as given in patent US20240051968A1, “METHODS FOR TREATING SPINOCEREBELLAR ATAXIA TYPE 3” (PTC Therapeutics, Inc., priority 2021, published 2024).

Key:
[1] = system: Total ATXN3 (tATXN3) protein; test: Endogenous Total ATXN3 (tATXN3) Protein Assay (MSD immunoassay of cell lysates); assay type: cell-based; settings: cells incubated with compound 48 h; 7-point concentration curve; MSD detection in cell lysate
Protocol: Endogenous Total ATXN3 (tATXN3) Protein Assay
Meso Scale Discovery (MSD) 96-well or 384-well plates were coated overnight at 4° C. with Ataxin 3 mouse monoclonal antibody (Invitrogen, MA3-082) at a concentration of 0.5 μg/mL in PBS (30 μL per well). Plates were then washed three times with 300 μL wash buffer (0.05% TWEEN®-20, polyethylene glycol sorbitan monolaurate, in PBS) and blocked (Meso Scale Diagnostics, R93BA-1; 5% BSA in PBS) for 2 h at room temperature with rotational shaking and then washed three times with wash buffer.
(§1) Test compounds were serially diluted 3.16-fold in 100% DMSO to generate a 7-point concentration curve. Aliquots of 0.5 μL of diluted compounds were transferred to a 96-well flat bottom plate by a liquid handler. An aliquot of 0.5 μL DMSO was also transferred to separate wells and used as controls. Duplicate samples were set up for each compound concentration and for the DMSO control.
Cells were thawed and incubated in cell culture media (DMEM, 10% FBS, and 1% antibiotic cocktail) for 72 h. Cells were trypsinized, counted, and re-suspended to a concentration of 100,000 cells/mL in cell culture media. A 100 μL aliquot of the cell suspensions were plated at 10,000 cells per well in the compound containing 96 well microtiter plate and incubated for in a cell culture incubator (37° C., 5% CO2, 100% relative humidity). After 48 h, the medium was removed and 50-100 μL of lysis buffer (Meso Scale Diagnostics, R60TX-2) containing 1× halt protease inhibitor cocktail of (Thermo Scientific, Halt™ Protease Inhibitor Cocktail, 78430) per well was added to cells to provide a “cell lysate”. The plate was placed on a shaker at 4° C. for 30 minutes, then stored at −80° C.
Cell lysate samples (25 μL) were transferred to the antibody-coated MSD plate and incubated overnight at 4° C. After removal of the lysates, the plate was washed three times with wash buffer, and 25 μL of Ataxin 3 recombinant rabbit monoclonal antibody (Invitrogen, #702788) secondary antibody (diluted to 0.25 μg/mL in 0.05% TWEEN®-20 in blocking buffer) was added to each well and incubated with shaking for 1-2 h at room temperature. Following incubation with the secondary antibody, the wells were rinsed with wash buffer and then […] Anti Rabbit Antibody Goat SULFO-TAG Labeled (Meso Scale Diagnostics, R32AB-1) detecting antibody (diluted to 0.25 μg/mL in 0.05% TWEEN®-20 in blocking buffer) was added to each well and incubated with shaking for 1 h at room temperature. After rinsing three times with wash buffer, 150 μL of Read Buffer T with surfactant (tris-based buffer containing tripropylamine, Meso Scale Diagnostics, R92TC-1) were added to each empty well, and the plate was imaged on a SI 6000 imager (MSD) according to manufacturers' instructions provided for 96- or 384-well plates.

[2] = system: ATXN3 pre-mRNA; test: RT-qPCR Assay to Quantify Exon 4 Skipping in ATXN3 pre-mRNA in Cells; assay type: cell-based; settings: cells incubated with compound 24 h, 7-point concentration curve, GAPDH control
Protocol: as §1, with “RT-qPCR Assay to Quantify Exon 4 Skipping in ATXN3 pre-mRNA in Cells Test” for “Test”
Cells were thawed and incubated in cell culture media (DMEM, 10% FBS, and 1% antibiotic cocktail) for 72 h. Cells were trypsinized, counted, and re-suspended to a concentration of 100,000 cells/mL in cell culture media. A 100 μL aliquot of the cell suspensions were plated at 10,000 cells per well in the compound containing 96 well microtiter plate and incubated for in a cell culture incubator (37° C., 5% CO2, 100% relative humidity).
After 24 h, media was aspirated from the cells and 50 μL of the RCL2 lysis buffer (10 mM Tris-HCL pH 7.4, 150 mM NaCl, 0.33% IGEPAL® CA-630) was added to each well and incubated at room temperature for 1 min. Chilled nuclease free water (50 μL per well) was added and the plates were immediately transferred on ice. After 1 min on ice, plates were frozen at −80° C. overnight.
Preparation of RT-qPCR Reaction Mixture:
An aliquot of 2 μL/well of the cell lysates was transferred using the liquid handler to the Armadillo 384-Well PCR plate containing 8 μL/well of the RT-qPCR reaction mixture that was prepared as detailed above. The plates were then sealed with MicroAmp™ Optical Adhesive Film followed by spinning down for 1 min and placed in the CFX384 thermocycler (BioRad).
The RT-qPCR was carried out at the following temperatures for the indicated time: • Step 1: 48° C. (30 min) • Step 2: 95° C. (10 min) • Step 3: 95° C. (15 sec) • Step 4: 60° C. (1 min); then, repeated Steps 3 and 4 for a total of 40 cycles.
The percent exon 4 skipping was calculated for each dose of compound treatment using Equations 1 and 2.
Data were fit to a dose response curve and the IC50 was interpolated using XLfit® statistical and curve fitting package.
An IC50 value between >2.0 μM and ≤3.0 μM is indicated by one star (*). […] IC50 value between >0.5 μM and ≤1.0 μM is indicated by four stars (****). An IC50 value ≤0.5 μM is indicated by five stars (*****).

SMILES	IC50 (average), total ATXN3 protein [1]	IC50, exon 4 skipping in ATXN3 pre-mRNA [2]	IC50 [2]	IC50 [1]
Clc1cc(NCc2ccco2)c2scc(Cl)c2n1 [Cpd 6, 3,5-dichloro-N-[(furan-2-yl)methyl]thieno[3,2-b]pyridin-7-amine]	inactive	inactive	–	–
Clc1cc(NCc2ccco2)c2scc(Br)c2n1 [Cpd 7, 3-bromo-5-chloro-N-[(furan-2-yl)methyl]thieno[3,2-b]pyridin-7-amine]	inactive	–	1000 to 1500 nM	–
C[C@H](N)Cc1cc2nc(Cl)cc(NCc3ccco3)c2s1 [Cpd 16, 2-[(2S)-2-aminopropyl]-5-chloro-N-[(furan-2-yl)methyl]thieno[3,2-b]pyridin-7-amine]	–	–	≤ 500 nM	≤ 500 nM
N[C@@H](CO)Cc1cc2nc(Cl)cc(NCc3ccco3)c2s1 [Cpd 17, (2R)-2-amino-3-(5-chloro-7-{[(furan-2-yl)methyl]amino}thieno[3,2-b]pyridin-2-yl)propan-1-ol]	–	–	≤ 500 nM	≤ 500 nM
Cc1c(C[C@H](C)N)sc2c(NCc3ccco3)cc(Cl)nc12 [Cpd 18, 2-[(2S)-2-aminopropyl]-5-chloro-N-[(furan-2-yl)methyl]-3-methylthieno[3,2-b]pyridin-7-amine]	–	–	≤ 500 nM	≤ 500 nM
Cc1c(C[C@H](C)N)sc2c(NCc3ccccc3F)cc(Cl)nc12 [Cpd 29, 2-[(2S)-2-aminopropyl]-5-chloro-N-[(2-fluorophenyl)methyl]-3-methylthieno[3,2-b]pyridin-7-amine]	–	–	≤ 500 nM	≤ 500 nM
Cc1c(C[C@H](C)N)sc2c(NCc3ccco3)ccnc12 [Cpd 34, 2-[(2S)-2-aminopropyl]-N-[(furan-2-yl)methyl]-3-methylthieno[3,2-b]pyridin-7-amine]	–	–	≤ 500 nM	≤ 500 nM
Cc1c(C[C@H](C)N)sc2c(NCc3ccncc3F)cc(Cl)nc12 [Cpd 35, 2-[(2S)-2-aminopropyl]-5-chloro-N-[(3-fluoropyridin-4-yl)methyl]-3-methylthieno[3,2-b]pyridin-7-amine]	–	–	≤ 500 nM	≤ 500 nM
C[C@H](N)Cc1sc2c(NCc3ccco3)cc(Cl)nc2c1Cl [Cpd 36, 2-[(2S)-2-aminopropyl]-3,5-dichloro-N-[(furan-2-yl)methyl]thieno[3,2-b]pyridin-7-amine]	–	–	≤ 500 nM	≤ 500 nM
N[C@@H](CO)Cc1sc2c(NCc3ccco3)cc(Cl)nc2c1Cl [Cpd 39, (2R)-2-amino-3-(3,5-dichloro-7-{[(furan-2-yl)methyl]amino}thieno[3,2-b]pyridin-2-yl)propan-1-ol]	–	–	≤ 500 nM	≤ 500 nM
COC[C@H](N)Cc1sc2c(NCc3ccco3)cc(Cl)nc2c1Cl [Cpd 40, 2-[(2R)-2-amino-3-methoxypropyl]-3,5-dichloro-N-[(furan-2-yl)methyl]thieno[3,2-b]pyridin-7-amine]	–	–	≤ 500 nM	≤ 500 nM
N[C@@H](CO)Cc1sc2c(NCc3ccco3)cc(Cl)nc2c1Br [Cpd 41, (2R)-2-amino-3-(3-bromo-5-chloro-7-{[(furan-2-yl)methyl]amino}thieno[3,2-b]pyridin-2-yl)propan-1-ol]	–	–	≤ 500 nM	≤ 500 nM
CN[C@@H](C)Cc1sc2c(NCc3ccco3)cc(Cl)nc2c1C [Cpd 42, 5-chloro-N-[(furan-2-yl)methyl]-3-methyl-2-[(2S)-2-(methylamino)propyl]thieno[3,2-b]pyridin-7-amine]	–	–	500 to 1000 nM	≤ 500 nM
COC[C@H](N)Cc1sc2c(NCc3ccco3)cc(Cl)nc2c1Br [Cpd 44, 2-[(2R)-2-amino-3-methoxypropyl]-3-bromo-5-chloro-N-[(furan-2-yl)methyl]thieno[3,2-b]pyridin-7-amine]	–	–	≤ 500 nM	≤ 500 nM
COC[C@H](N)Cc1sc2c(NCc3ccco3)cc(Cl)nc2c1C [Cpd 45, 2-[(2R)-2-amino-3-methoxypropyl]-5-chloro-N-[(furan-2-yl)methyl]-3-methylthieno[3,2-b]pyridin-7-amine]	–	–	≤ 500 nM	≤ 500 nM
C[C@H](N)Cc1sc2c(NCc3ccco3)cc(Cl)nc2c1C1CC1 [Cpd 51, 2-[(2S)-2-aminopropyl]-5-chloro-3-cyclopropyl-N-[(furan-2-yl)methyl]thieno[3,2-b]pyridin-7-amine]	–	–	≤ 500 nM	≤ 500 nM
C[C@H](N)Cc1sc2c(NCc3cccs3)cc(Cl)nc2c1Cl [Cpd 52, 2-[(2S)-2-aminopropyl]-3,5-dichloro-N-[(thiophen-2-yl)methyl]thieno[3,2-b]pyridin-7-amine]	–	–	≤ 500 nM	≤ 500 nM
C[C@H](N)Cc1sc2c(NCc3cccs3)cc(Cl)nc2c1Br [Cpd 53, 2-[(2S)-2-aminopropyl]-3-bromo-5-chloro-N-[(thiophen-2-yl)methyl]thieno[3,2-b]pyridin-7-amine]	–	–	≤ 500 nM	≤ 500 nM
Cc1c(C[C@H](C)N)sc2c(NCc3cccs3)cc(C#N)nc12 [Cpd 54, 2-[(2S)-2-aminopropyl]-3-methyl-7-{[(thiophen-2-yl)methyl]amino}thieno[3,2-b]pyridine-5-carbonitrile]	–	–	≤ 500 nM	≤ 500 nM
Cc1c(C[C@H](C)N)sc2c(NCc3nccs3)cc(Cl)nc12 [Cpd 57, 2-[(2S)-2-aminopropyl]-5-chloro-3-methyl-N-[(1,3-thiazol-2-yl)methyl]thieno[3,2-b]pyridin-7-amine]	–	–	≤ 500 nM	≤ 500 nM
Cc1c(C[C@@H](N)CO)sc2c(NCc3ccco3)cc(Cl)nc12 [Cpd 58, (2R)-2-amino-3-(5-chloro-7-{[(furan-2-yl)methyl]amino}-3-methylthieno[3,2-b]pyridin-2-yl)propan-1-ol]	–	–	≤ 500 nM	≤ 500 nM
Cc1c(C[C@H](N)CF)sc2c(NCc3ccco3)cc(Cl)nc12 [Cpd 59, 2-[(2S)-2-amino-3-fluoropropyl]-5-chloro-N-[(furan-2-yl)methyl]-3-methylthieno[3,2-b]pyridin-7-amine]	inactive	inactive	–	–
Cc1c(C[C@@H](N)CC(C)C)sc2c(NCc3cccs3)cc(Cl)nc12 [Cpd 61, 2-[(2S)-2-amino-4-methylpentyl]-5-chloro-3-methyl-N-[(thiophen-2-yl)methyl]thieno[3,2-b]pyridin-7-amine]	–	–	≤ 500 nM	≤ 500 nM
N[C@H](CF)Cc1sc2c(NCc3cccs3)cc(Cl)nc2c1Br [Cpd 63, 2-[(2S)-2-amino-3-fluoropropyl]-3-bromo-5-chloro-N-[(thiophen-2-yl)methyl]thieno[3,2-b]pyridin-7-amine]	–	–	1500 to 2000 nM	> 2000 nM
